# Results published in patent US12649734B2, “Bioavailable protein disulfide isomerase inhibitors” (THE CLEVELAND CLINIC FOUNDATION, priority 2020, dated 2026).
# Tests used:
# [1] = tested on: myeloma cells (MM1.S, MM1.S.LUC, BTZ-resistant MM1.S.LUC); assay: ROS detection (carboxy-H2DCFDA); assay type: cell-based, human; details: 2.5 μM, peaking between 2-3 h
# Procedure: ROS detection: MM1.S, MM1.S.LUC, and BTZ-resistant MM1.S.LUC cells were washed with DPBS and treated with 5 μM carboxy-H2DCFDA (Molecular Probes) for 45 min at 37° C. The cells were then washed 3 times in DPBS and followed by 2.5 μM CCF642-34 treatment up to 4 h. After the incubation, the cells were washed 3 times and the intracellular ROS was quantified (excitation=493 nm; […]) using a BioTek Synergy plate reader (BioTek Instruments, Inc., Winooski, VT, USA).
# [2] = tested on: MM1.S cells; assay: Cell viability assay (CellTiter-Glo), MM1.S; assay type: cell-based, human; details: MM cells, in vitro cell culture
# Procedure: Cell vi-ability and LD50 for inhibitors were measured in 96 well culture plates (2×10^4 cells/well) after 72 h of treatment using CellTiter-Glo® Luminescent Cell Viability Assay (Promega, Madison, WI, USA). (A) Cell survival assay with MM1.S.luc and BTZ-resistant MM1.S.luc cells. […] (C) Comparison of PDIA1 protein levels in MM1.S.luc and MM1.S.luc BTZ-resistant cells. Band intensity was calculated with Image Lab Version 5.2.1. (D) Cell survival assay with 5TGM1.luc and (E) BTZ-resistant 5TGM1.luc cells. (F) MM1.S cell line was exposed to CCF642-34, and BTZ for 72 h for synergistic drug combination test according to Chou and Talalay method. If the […] remained less than 1, the two drugs were determined as synergistic. […] The number of colony-forming units were plotted for each treatment.
# (§1) Cell viability assay: Cell viability was measured in 96 well culture plates (2×10^4 cells/well) using CellTiter-Glo® Luminescent Cell Viability Assay (Promega, Madison, WI, USA) according to the manufacturer's protocol.
# [3] = Liver microsome assay; assay type: in vitro ADME; details: 0.25 mg/mL human liver microsomes
# Procedure: FIGS. 8A & 8B provide graphs showing the stability of CCF642-34 and restriction of multiple myeloma in a syngeneic mouse model by PDIA1-inhibitor CCF642-34. (A) The stability of CCF642-34 was measured against oxidative metabolism by human liver microsomes. CCF642-34 (20 μM) was incubated with 0.25 mg/mL of human liver microsomes for 5 h. The residual compound at indicated time points was measured by HPLC (Agilent 1260 Infinity II) interfaced with reverse phase C18 column using 280 nm and 245 nm detection wavelength. The standard curve of known concentrations of CCF642-34 was obtained from the area under the peak at two wavelengths, and the remaining CCF642-34 was estimated. Data are representative of two independent experiments. […] The survival of each group was monitored, and Kaplan-Meier survival analysis was performed. […]
# Liver microsome assay: 20 μM CCF642 or CCF642-34 were incubated with 1 mM NADPH and 0.25 mg/mL human liver microsomes (Sigma, Cat. No: M0567) at 37° C. […] Supernatant was obtained after centrifugation at 15,000 g for 5 min and the remaining compound in supernatant was analyzed by Agilent 1260 Infinity II HPLC with Ultra-violet (UV) detector using Gemini column, […] particle size 150×2 mm (Phenomenex). […] The relative amount of drug at each time point was determined by using the UV peak detection at wavelength 254 and 282 nm. […]
# [4] = tested on: MM1.S cells; assay: ER stress response and apoptosis markers by immunoblotting; assay type: cell-based, human; details: 3 μM, 4 h
# Procedure: FIGS. 6A-6C provide graphs and images showing PDIA1 inhibition by CCF642 analogues induce acute endoplasmic reticulum (ER) stress response and lead to apoptosis. Multiple myeloma cells (MM1.S) were treated with 3 μM of CCF642, -34, -37, -39, -34-A, and Tunicamycin (as a control). The status of ER sensors (XBP-1S, IRE1α oligomerization, and induction of C/EBP homology protein (CHOP)) along with apoptosis markers (cleaved caspase 3 and PARP1) were monitored. (A) MM1.S cells were treated for 4 h with CCF642 and its indicated analogues. (B) MM1.S cells were treated with CCF642-34 in a time course. (C) MM1.S, MM1.S.luc, and BTZ-resistant MM1.S.luc cells were stained with the H2DCFDA ROS detection and then treated with 2.5 μM CCF642-34 up to 4 h.
# Immunoblotting: Immunoblotting was performed as described previously (Dallas et al., Blood, 93, 1697-1706 (1999)) using primary antibodies against PDIA1 (Cat #3501), XBP1-S (Cat #12782); IRE1α (Cat #3294), C/EBP homologous protein (CHOP) (Cat #5554), Caspase-3 (Cat #9665), PARP1 (Cat #9542), and GAPDH (Cat #3683) purchased from Cell Signaling Technology, Inc. (Danvers, MA, USA) and used at 1:1000 dilution, unless mentioned otherwise.
# [5] = tested on: BTZ-resistant MM1.S cells; assay: Cell viability assay, BTZ-resistant MM1.S; assay type: cell-based, human
# Procedure: Cells and reagents: MM1.S-luc-BTZ (BTZ®)-resistant cell line was made in our laboratory. Starting with 1 nM concentration, MM1.S-luc cells were treated with BTZ and exposed continuously for 5 days and removed for 2 days before re-exposure to the drug until the growth of the cells mimicked the parental cell line. Incremental increase of the drug was applied until the concentration of 8 nM was reached. […] BTZ was procured from Millennium Pharmaceuticals Inc. All cell lines that are used in this study and their detailed information are shown in table 1 below.
# as §1
smiles,measurement,setting,value
NC(CC1CNc2ccccc21)C(=O)NCCCOc1ccc(N2C(=O)/C(=C/c3ccc([N+](=O)[O-])s3)SC2=S)cc1 (centres unmarked) [CCF642-34],increase of reactive oxygen species (ROS),[1],4-6 fold
same,higher potency compared to CCF642,[2],~2 fold
same,half-life at 20 µM,[3],> 5 h
same,ER stress response (induction of XBP-1S and CHOP),[4],induced a robust ER stress response
same,sensitivity of BTZ-resistant MM1.S compared to parental BTZ-naive MM1.S,[5],~2 fold
